# Literature values in patent US8686040B2, “Method for treating anal pruritis and other perianal disorders” (RDD Pharma Ltd., priority 2008, dated 2014).
# Tests used:
# [1] = relative to gabapentin
smiles,measurement,setting,value
CC(C)C[C@H](CN)CC(=O)O [Pregabalin],time to reach peak concentration after oral ingestion,,≤ 90 min
same,absorption when administered orally,oral,greater than 90%
same,lipid solubility,[1],higher lipid solubility than gabapentin
